These are literature values, as cited in US9248112B2, “Hemodialysis and peritoneal dialysis solutions comprising one or more creatine compounds” (CREARENE LTD., priority 2009, dated 2016).

Structures are written as SMILES. Read-outs that look alike come from different tables or passages of the source.

Assay in series [1]: not given
The source holds these as a separate data set.

The conditions of series [2]: peritoneal dialysis solution, 37° C.
The conditions of series [3]: adults, clinical studies.
Series [4] concerns the target T1, creatine transporter protein (CrT) (Homo sapiens, UniProt P48029).
T1 sequence (P48029 1-635): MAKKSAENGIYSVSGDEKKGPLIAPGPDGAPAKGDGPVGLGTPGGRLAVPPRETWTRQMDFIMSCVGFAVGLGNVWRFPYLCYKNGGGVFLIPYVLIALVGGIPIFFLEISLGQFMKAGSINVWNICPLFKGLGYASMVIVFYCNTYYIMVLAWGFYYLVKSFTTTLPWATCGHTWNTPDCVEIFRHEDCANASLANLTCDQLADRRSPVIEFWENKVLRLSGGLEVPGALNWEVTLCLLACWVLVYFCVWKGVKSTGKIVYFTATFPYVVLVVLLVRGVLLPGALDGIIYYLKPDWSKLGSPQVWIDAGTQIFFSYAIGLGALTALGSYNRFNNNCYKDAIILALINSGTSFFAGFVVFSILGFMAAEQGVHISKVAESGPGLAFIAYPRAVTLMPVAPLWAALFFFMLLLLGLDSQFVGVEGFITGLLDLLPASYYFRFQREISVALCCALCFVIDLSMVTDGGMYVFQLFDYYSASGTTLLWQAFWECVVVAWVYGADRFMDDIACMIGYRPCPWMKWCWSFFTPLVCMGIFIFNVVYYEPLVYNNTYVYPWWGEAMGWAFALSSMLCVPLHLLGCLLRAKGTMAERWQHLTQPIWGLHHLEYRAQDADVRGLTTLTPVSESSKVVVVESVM
The following applies: CrT in the plasma membrane.

Assay in series [5]: not given
The source holds these as a separate data set.

Series [6] relates to homocysteine. The following applies: animal model.
Series [7] concerns homocysteine.

For the molecule `CN(CC(=O)O)C(=N)N.O` [creatine monohydrate], for the setting “acidic aqueous solutions, temperatures over 60° C.”, the “stability in acidic aqueous solutions” value is on record as “some instability”. Also, the “storage stability in solution” value (neutral pH, cooled) is listed as “can be stored for thirty days without losses”. Besides, the “decrease in muscle cramps” value in series [1] (12 g orally 5 minutes before hemodialysis, four week treatment) is 60%. Further, the “serum creatinin after treatment” value in series [1] (after four week treatment period, 12 g orally before hemodialysis) is 12.4 mg/dL. Further, in series [1] (start of four week treatment period), the “serum creatinin before treatment” value was 10.7 mg/dL.
In general, Km refers to the concentration of substrate that gives half-maximal velocity. For `CN(CC(=O)O)C(=N)N` [creatine], in series [2], the “concentration near the saturation limit of creatine” value is 24-25 g per liter. For the same molecule, the safe daily intake result in series [3] is listed as “up to 20 g daily”. Further, in series [4], the Km was 25 to 30 µM. In addition, the serum creatine concentration in series [5] (after a single oral dose of 5-20 g of creatine) is given as 1-2 mM/l. For the same molecule, the “time to reach maximal levels in the blood stream” value in series [5] (ingested (oral) creatine) is “two to four”. The “serum levels of homocysteine” value in the series with homocysteine [6] is “reduce serum levels”. In addition, the homocystein levels entry in the series with homocysteine [7] (2 g/day, additionally vitamin B supplemented subjects) is reported as “no such effects were seen”; in the series with homocysteine [7] (humans, approximately 5 g Cr/day) it was “reduction of homocystein levels”.
